In patent US7087616B2, “Pyrazolyl pyrimidines” (Bayer CropScience AG, priority 2001, dated 2006):

How the values were obtained:
[1] = system: Meloidogyne incognita; assay: Meloidogyne Test; type: in vivo; settings: 20 ppm, nematicidal action by gall formation on lettuce
Experimental: (§1) To produce a suitable preparation of active compound, 1 part by weight of active compound is mixed with the stated amounts of solvent and emulsifier, and the concentrate is diluted with water to the desired concentration.
Containers are filled with sand, solution of active compound, Meloidogyne incognita egg/larvae suspension and lettuce seeds. The lettuce seeds germinate and the plants develop. On the roots, galls are formed.
After the desired period of time, the nematicidal action is determined in % by the gall formation. 100% means that no galls were found; 0% means that the number of galls on the treated plants corresponds to that of the untreated control.
The amount of solvent, amount of emulsifier, active compounds, active compound concentrations and test results are shown in the Tables below.

[2] = system: larvae of the mustard beetle (Phaedon cochlearae); assay: Phaedon Larvae Test; type: in vivo; settings: 500 ppm; cabbage leaves dipped
Experimental: [table] To produce a suitable preparation of active compound, 1 part by weight of active compound is mixed with the stated amounts of solvent and emulsifier, and the concentrate is diluted with emulsifier-containing water to the desired concentration. Cabbage leaves (Brassica oleracea) are treated by being dipped into the preparation of active compound of the desired concentration and are populated with larvae of the mustard beetle (Phaedon cochlearae) while the leaves are still moist.

[3] = Aust. J. Chem. 1980, 33, 2291–2298; cited from earlier work
[4] = system: green peach aphids (Myzus persicae); assay: Myzus Test/Broad Beans; type: in vivo; settings: broad bean seedlings dipped
Experimental: To produce a suitable preparation of active compound, 1 part by weight of active compound is mixed with the stated amount of solvent and the stated amount of emulsifier, and the concentrate is diluted with emulsifier-containing water to the desired concentrations.
Broad bean (Vicia faba minor) seedlings which are infested by green peach aphids (Myzus persicae) are dipped into a preparation of active compound of the desired concentration and placed into a plastic box.
After the desired period of time, the kill in % is determined. 100% means that all animals have been killed; 0% means that none of the animals have been killed.

[5] = system: Aphis gossypii; assay: Critical Concentration/Root-systemic Action; type: in vivo; settings: 20 ppm (mg/l soil); root-systemic action, cucumber plants
Experimental: as §1
The preparation of active compound is intimately mixed with soil. The concentration of the active compound in the preparation is of practically no importance here, only the amount by weight of active compound per unit volume of soil, which is given in ppm (=mg/l), being decisive. The treated soil is transferred into pots and these are planted with cucumber plants at the cotyledon stage. In this way, the active compound can be taken up from the plant and be transported into the leaves.
After a further 7 days, evaluation is carried out by counting or estimating the dead animals. The root-systemic action of the active compound is deduced from the mortality figures. It is 100% if all test animals have been killed and 0% if just as many test insects are still alive as in the case of the untreated controls.

[6] = Table A 2, emulsifier 2 parts by weight

## O=C(O)CSc1nccc(-n2cc(-c3ccc(Cl)cc3)cn2)n1
[1]; [6]
  Kill rate in % after 14d: 80%

## CCOC(=O)CSc1nccc(-n2ccc(C(C)=O)n2)n1
[1]; [6]
  Kill rate in % after 14d: 80%

## O=C(O)CSc1nccc(-n2cc(-c3ccccc3)cn2)n1
[2]
  Kill rate in % after 7d: 100%

## Cc1cc(C)n(-c2ccnc(SCC(N)=O)n2)n1 [2-{[4-(3,5-dimethyl-1H-pyrazol-1-yl)-2-pyrimidinyl]thio}acetamide]
[3]
  enhancing effect on phleomycin: no enhancing effect

## COC(=O)CSc1nccc(-n2cc(C)cn2)n1 [drawing 167]
[1]; Table A 1, emulsifier 1 part by weight
  Kill rate in % after 14d: 90%

## CCOC(=O)CSc1nccc(-n2cc(Cl)cn2)n1 [drawing 169]
[1]; [6]
  Kill rate in % after 14d: 100%

## C#Cc1cnn(-c2ccnc(SCC(=O)OCC)n2)c1 [drawing 171]
[1]; [6]
  Kill rate in % after 14d: 90%

## O=C(O)CSc1nccc(-n2cc(Cl)cn2)n1 [drawing 172]
[1]; [6]
  Kill rate in % after 14d: 85%

## C=Cc1cnn(-c2ccnc(SCC(=O)OCC)n2)c1 [drawing 173]
[1]; [6]
  Kill rate in % after 14d: 80%

## COC(=O)CSc1nccc(-n2cc(C)cn2)n1 [drawing 194]
[4]; 500 ppm
  Kill rate in % after 6d: 100%

## COC(=O)CSc1nccc(-n2cc(Br)cn2)n1 [drawing 195]
[4]; 100 ppm
  Kill rate in % after 6d: 100%

## CCOC(=O)CSc1nccc(-n2cc(C)cn2)n1 [drawing 196]
[4]; 500 ppm
  Kill rate in % after 6d: 99%

## CCOC(=O)CSc1nccc(-n2cccn2)n1 [drawing 197]
[5]
  Kill rate in % 7d after infection: 90%

## CCOC(=O)CSc1nccc(-n2cc(-c3ccccc3)cn2)n1 [drawing 207]
[2]
  Kill rate in % after 7d: 100%
